Test results reported in patent publication US10350315B2, “Quinoline-3-carboxamide compounds and their use in diagnosis” (Westfaelische Wihelms-Universitaet Muenster, priority 2014, dated 2019).
Entries after “also recorded” stand apart in the source; their conditions may differ.

Tests used:
S100A9 [1] = target: T1, S100A9 (Mus musculus, UniProt P31725); test: Collagen induced arthritis mouse model, SPECT/CT; assay type: in vivo, DBA/1j mice; settings: 55 MBq per mouse i.v.
T1 construct: from tissue; host or cells: living mice (inflamed ear, joints) and explanted mouse heart, aorta and lungs
T1 sequence (P31725 2-113 limits assumed): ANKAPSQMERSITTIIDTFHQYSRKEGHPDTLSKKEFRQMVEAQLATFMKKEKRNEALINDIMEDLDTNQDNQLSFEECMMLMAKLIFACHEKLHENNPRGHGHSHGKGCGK
Protocol: FIG. 20: Accumulation of [^99mTc]FEB054 in a mouse model of collagen induced arthritis. The tracer was intravenously injected at a dose of 55 MBq per mouse. […] The tracer distribution was measured in vivo 60 min post injection using SPECT/CT.
Induction and imaging of CIA: Arthritis was induced in DBA/1j mice by injection of bovine collagen type II. Bovine collagen type II (bCII, MD Biosciences) was dissolved in 0.05 M acetic acid at a concentration of 2 mg/ml. DBA/1j mice were injected subcutaneously at the tail base with 100 μg bCII emulsified in CFA (Difco) and boostered on day 21 with 100 μg bCII in IFA at the same location. Mice were regularly inspected from day 14 after disease induction and scored for swelling, erythema and deformation of each joint three times a week. Imaging was performed after arthritis was clinically detectable in the majority of treated animals at indicated time points after tracer application of either Cy5.5-CES271 or [99mTc]FEB054.
SPECT/CT imaging of inflamed joints was recorded 1 h after iv injection of [99mTc]FEB054 (55 MBq of [99mTc]FEB054 per mouse). Individual feet of the mice were analysed separately according to the histological score. […] Even single affected joints could be clearly identified.

[2] = Human blood serum stability at 37 °C (gradient HPLC); assay type: in vitro ADME; settings: freshly prepared human blood serum, over 120 min
Protocol: FIG. 17: Human serum blood stability of [^99mTc]FEB054. […] Blood serum stability was tested in freshly prepared human blood serum at 37° C. Samples were taken after 10, 20, 30, 60, 90 and 120 minutes and analysed using a gradient HPLC system. 5 MBq of [^99mTc]FEB054 in 20 μL PBS buffer was added to 200 μL of a freshly prepared human blood serum sample and incubated at 37° C. After 10, 20, 30, 60, 90 and 120 minutes, 20 μL were separated and diluted with 50 μL dichloromethane and 50 μL methanol. After centrifugation, 10 μL of the solution were analyzed via gradient-HPLC using a Knauer system with two Smartline 1000 pumps, Smartline UV detector 2500 (Herbert Knauer GmbH), a GabiStar γ-detector (Raytest lsotopenmessgeräte GmbH) and a reversed phase C18 column (Nucleosil 100-5 C-18 column 4.6 mm×250 mm). Eluent A: water (0.1% TFA). Eluent B: Methanol (0.1% TFA). […]
Blood serum stability was tested in freshly prepared human blood serum at 37° C. […] Samples were taken after 10, 20, 30, 60, 90 and 120 minutes and analysed using a gradient HPLC system. […] After centrifugation, 10 μl of the solution were analysed via gradient-HPLC using a Knauer system with two Smartline1000 pumps, Smartline UV-detector 2500 (Herbert Knauer GmbH), a GabiStar γ-detector (Raytest lsotopenmessgeräte GmbH) and a reverse phase […] column 4.6 mm×250 mm). […]

[3] = Biodistribution and elimination of [99mTc]FEB054 in healthy Balb/c mice (SPECT/CT); assay type: in vivo
Protocol: FIG. 18: Biodistribution (A) and elimination (B) of [^99mTc]FEB054 in healthy Balb/c mice. The tracer was intravenously injected at a dose of 62 MBq per mouse. The tracer accumulation and elimination was measured 0-90 min post injection.
Mice were injected and scanned under isoflurane/oxygen inhalation anaesthesia (1.4-1.8% isoflurane, 0.5 l O2/min). All animals were injected with a target dose of 2.5 MBq/g body weight) and a total injection volume ≤150 μl. For the image acquisition we used a NanoSPECT/CT-Plus preclinical camera (Mediso Medical Imaging Systems; Hungary), a 4-head gamma camera equipped with multi-pinhole collimators and a cone beam CT imaging system. In the shown studies we employed 9 pinholes/head with a diameter of 1.0 mm and a field of view of 30 mm×16 mm. 10 projections/scan and 60 seconds/projection resulting in a minimum of 100 kcounts/projection (in order to achieve high quality images with high statistics) were acquired. At the end of the SPECT measurement a CT scan was performed (same FOV as the SPECT scan) (55 kVp; 180 projections/rotation; 500 ms exposure time and 1 mm pitch with constant statistics). Data analysis was performed by CT based definitions of regions-of-interest and quantitative mesurements are expressed as kBq/mL.

S100A9 [4] = target: T1, S100A9; test: Irritant contact dermatitis (ICD) mouse model, SPECT/CT; assay type: in vivo, mice; settings: 66 MBq per mouse i.v.
Protocol: FIG. 19: Accumulation of [^99mTc]FEB054 in the inflamed ear and muscle in a mouse model of contact dermatitis (ICD). The tracer was intravenously in a mouse model of contact dermatitis of the left ear in WT mice (=inflamed, right hand side) at a dose of 66 MBq per mouse and measured 0-60 min post injection.
Mice were injected and scanned under isoflurane/oxygen inhalation anaesthesia (1.4-1.8% isoflurane, 0.5 l O2/min). All animals were injected with a target dose of 2.5 MBq/g body weight) and a total injection volume ≤150 μl. […] Data analysis was performed by CT based definitions of regions-of-interest and quantitative mesurements are expressed as kBq/mL.
ICD was induced by the application of 20 μl 1% croton oil in olive oil-acetone (1:4) to the ventral surface of the left ear of mice for 24 h (n=5 per group), whereas the right ear served as a control. […] In the Cy7 channel the quantum yield is much lower compared to the Cy5.5 channel, which means that the recorded signal with Cy5.5-CES271 is higher than compared to […] (right image; FIG. 21). […] The labelling efficacy (dye/antibody ratio) was determined on the basis of ultraviolet-spectra of the purified dye-antibody compound using PBS as a reference buffer. […]

Correlation of SPECT signal with clinical scoring (S100A9 [1]; 1 h after injection): excellent correlation
Tracer accumulation in liver, intestines, kidneys and urinary bladder (S100A9 [1]; 60 min post injection): intensive tracer accumulation
Accumulation of the tracer in the liver and intestines ([3]; 62 MBq per mouse i.v.): intensive accumulation
Time of hepato-biliary elimination ([3]; 62 MBq per mouse i.v.): ≤ 20 min
Route of elimination ([3]; 62 MBq per mouse i.v., 0-90 min post injection): predominant hepato-biliary elimination
Tracer availability in the blood ([3]; 62 MBq per mouse i.v., first 10 minutes): good tracer availability in the blood
Blood half-life ([3]; mouse, in vivo): suitable
Substance: fac-[^99mTc(CO)3(5-ethyl-4-hydroxy-1-methyl-N-{1-(1-methyl-1H-imidazol-2-yl)-2-[(1-methyl-1H-imidazol-2-yl)methyl]-5,8,11-trioxa-2-azatridecan-13-yl}-2-oxo-N-phenyl-1,2-dihydroquinoline-3-carboxamide)]^+ [[^99mTc]FEB054]
Tracer accumulation in inflamed joints of the hind limbs versus healthy control mouse (S100A9 [1]; 60 min post injection): tracer accumulation in the inflamed joints
Human blood serum stability (decomposition) [2]: very good; also recorded: no decomposition
Tracer uptake in the inflamed ear compared to the healthy control ear (S100A9 [4]; 45 minutes post injection): higher tracer uptake
Uptake ratios inflamed ear versus blood and muscle (S100A9 [4]; dynamic imaging 0-60 min post injection): increasing uptake ratios
